{"source": "patent US10688093B2", "about": "“Methods, compositions, and uses of novel Fyn kinase inhibitors” (priority 2015, dated 2020)"}
{"target": "full-length recombinant human FYN A (Homo sapiens (Human), UniProt P06241)", "sequence (P06241 whole entry)": "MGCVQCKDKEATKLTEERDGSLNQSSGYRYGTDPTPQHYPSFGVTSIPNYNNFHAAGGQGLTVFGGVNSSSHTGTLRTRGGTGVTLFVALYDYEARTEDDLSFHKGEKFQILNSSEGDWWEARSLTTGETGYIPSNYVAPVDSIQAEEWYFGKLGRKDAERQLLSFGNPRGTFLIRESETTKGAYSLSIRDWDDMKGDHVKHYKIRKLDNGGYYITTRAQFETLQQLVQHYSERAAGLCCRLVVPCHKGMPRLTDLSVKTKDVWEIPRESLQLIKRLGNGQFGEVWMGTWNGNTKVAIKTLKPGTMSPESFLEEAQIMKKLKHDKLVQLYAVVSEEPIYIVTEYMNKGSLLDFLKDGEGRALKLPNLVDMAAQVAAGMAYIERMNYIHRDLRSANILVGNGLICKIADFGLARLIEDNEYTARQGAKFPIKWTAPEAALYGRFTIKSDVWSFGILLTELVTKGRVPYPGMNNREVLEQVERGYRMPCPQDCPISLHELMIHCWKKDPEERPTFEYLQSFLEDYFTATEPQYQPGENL", "assay": "ADP-Glo Kinase Assay of FYN kinase inhibition", "assay_type": "biochemical", "conditions": "primary screen, initial compounds", "text": "The chemical library was comprised of the SoftFocus ATP-competitive hinge binding compounds described by Harris, C. J., Hill, R. D., Sheppard, D. W., et al., The Design and Application of Target-Focused Compound Libraries. Combinatorial Chemistry and High Throughput Screening 14:521-31 (2011). The specific pharmacore chemistries included SFK52 comprising 6-[R2]-3-[R1]imidazo[1,2-b] pyridazine compounds, SFK33 comprising N-(3-[R2] imidazo [1,2-b] pyridazin-6-yl) [R1] amine compounds, SFK49 comprising N-(5-[R2] imidazo [2,1-b][1,3,4] thiadiazol-2-yl)[R1]-amine compounds, SFK 40 comprising 5-[R2]-3-[R1] pyridin-2-amine compounds, SFK43 comprising 6-[R2]-3-[R1]imidazo[1,2-a]pyrazine compounds, and SFK63. The chemical structures of the initial 600 potential kinase inhibitors are presented in Table 3, with those chosen for additional analysis presented in Table 4. Comparison of the compounds presented in Table 1 and those of Tables 2, 3 and 4, illustrate the novelty of the chemical structures claimed herein.\nFYN kinase (10 micrograms) was from the FYN A Kinase Enzyme System (V3571, Promega UK Ltd.), a full-length recombinant human FYN A containing an N-terminal GST tag of about 85 kDa, expressed by bacullovirus in […] insect cells, supplied at a concentration of 0.1 microgram/microliter in 5×reaction buffer. The FYN substrate, a 12 amino acid peptide of the sequence […], containing a single tyrosine phosphorylation site, was custom synthesized (Peptide Synthetics, Peptide Protein Research, Fareham, UK) and supplied as a 4 mg/ml aqueous solution. All other reagents were obtained from Sigma (Sigma-Aldrich, Gillingham, Dorset, UK), with the exception of UltraPure ATP (V9102, Promega UK Ltd.) and the ATP-competitive broad spectrum protein kinase inhibitor staurosporine (569397, Merck Millipore, Watford, Hertfordshire, UK), or as otherwise indicated.\nThe assay procedure determines the IC50 of each potential FYN kinase inhibitor by measuring the enzyme catalyzed ATP-dependent phosphorylation of the FYN substrate peptide. The ADP-Glo™ Kinase Assay is specifically designed to quantify kinase activity by measuring the ADP produced in the reaction The reaction buffer comprises 40 mM Tris.HCl (pH 7.5), 20 mM MgCl2, 0.1 mg/ml BSA and 5 microM DTT. Individual compounds within the chemical library were dissolved in DMSO at known concentrations. Briefly, 2.5 microliters of reaction buffer containing 3 picograms of FYN kinase and serial dilutions of each potential FYN kinase inhibitor (9 3-fold dilutions of a 10 micromolar top sample) are placed into each well of a 384 well microtiter plate and incubated at room temperature for 30 minutes. An additional 2.5 microliters of reaction buffer containing 100 picograms of the FYN substrate and 12.5 picomoles of ATP are then added to each well and the reaction carried out for 90 minutes at room temperature. The reactions are terminated by addition of 5 microliters of the ADP-Glo™ Reagent component of the ADP-Glo™ Kinase Assay kit to each well. The ADP-Glo™ Reagent comprises an ATP-dependent adenylate cyclase, an inorganic pyrophosphatase and an excess of staurosporine. The adenylate cyclase converts the remaining ATP to cAMP and pyrophospahte, the pyrophosphatase converts the pyrophosphate to phosphate and the staurosporine inhibits the activity of the FYN kinase, the net effect is to remove all residual ATP while preserving the ADP produced by FYN kinase. The terminated reactions are incubated for 40 minutes at room temperature, prior to addition of the Kinase Detection Reagent component of the ADP-Glo™ Kinase Assay kit to each well. The Kinase Detection Reagent comprises pyruvate kinase, phosphoenol pyruvate (PEP), luciferin and luciferase. The pyruvate kinase converts PEP to pyruvate and in the process generates ATP from the residual ADP present in the terminated reaction. […]", "units": {"IC50": "nM"}}
{"smiles": "CC(=O)Nc1cccc(-c2cnc3ccc(N[C@H](CO)C(C)C)nn23)c1", "note": "[229_0254_0081, N-[3-[6-[[(1S)-1-(hydroxymethyl)-2-methyl-propyl]amino]imidazo[1,2-b]pyridazin-3-yl]phenyl] acetamide]", "IC50": 801}
{"smiles": "CC(C)[C@@H](CO)Nc1ccc2ncc(-c3ccc(C#N)cc3)n2n1", "note": "[229_0254_0086, 4-[6-[[(1S)-1-(hydroxymethyl)-2-methyl-propyl]amino]imidazo[1,2-b]pyridazin-3-yl]benzonitrile]", "IC50": 3180}
{"smiles": "CC(C)[C@@H](CO)Nc1ccc2ncc(-c3ccc(N)cc3)n2n1", "note": "[229_0254_0333, (2S)-2-[[3-(4-aminophenyl)imidazo[1,2-b]pyridazin-6-yl]amino]-3-methyl-butan-1-ol]", "IC50": 3050}
{"smiles": "c1ccc(CNc2ccc3ncc(-c4ccc5c(c4)OCO5)n3n2)nc1", "note": "[229_4007_0068, 3-(1,3-benzodioxol-5-yl)-N-(2-pyridylmethyl) imidazo[1,2-b]pyridazin-6-amine]", "IC50": 797}
{"smiles": "COc1cccc(-c2cnc3ccc(NCC4CC4)nn23)c1", "note": "[229_4051_4140, N-(cyclopropyl-methyl)-3-(3-methoxyphenyl) imidazo[1,2-b]pyridazin-6-amine]", "IC50": 3300}
{"smiles": "COc1cc(-c2cnc3ccc(NCc4ccc(C)cc4C)nn23)ccc1O", "note": "[229_4319_0314, 4-[6-[(2,4-dimethylphenyl)methylamino]imidazo[1,2-b]pyridazin-3-yl]-2-methoxy-phenol]", "IC50": 5310}
{"smiles": "COc1cccc(-c2ccc3c(-c4ccc(C(=O)NCCCN(C)C)cc4)n[nH]c3n2)c1F", "note": "[267_0180_7936, N-[3-(dimethylamino)propyl]-4-[6-(2-fluoro-3-methoxy-phenyl)-1H-pyrazolo[3,4-b]pyridin-3-yl]benzamide]", "IC50": 7340}
{"smiles": "COc1ccc(Nc2ccn3ncc(-c4cccc(O)c4)c3n2)cn1", "note": "[294_0042_0284, 3-[5-[(6-methoxy-3-pyridyl)amino]pyrazolo[1,5-a]pyrimidin-3-yl]phenol]", "IC50": 3390}
{"smiles": "COc1cccc(-c2cnn3ccc(Nc4ccc(OC)nc4)nc23)c1", "note": "[294_0042_4140, 3-(3-methoxyphenyl)-N-(6-methoxy-3-pyridyl)pyrazolo [1,5-a]pyrimidin-5-amine]", "IC50": 5310}
{"smiles": "COc1ccc(Nc2ccn3ncc(-c4cccc(C(C)=O)c4)c3n2)cn1", "note": "[294_0042_4145, 1-[3-[5-[(6-methoxy-3-pyridyl)amino]pyrazolo[1,5-a]pyrimidin-3-yl]phenyl] ethanone]", "IC50": 1640}
{"smiles": "COc1cncc(-c2cnn3ccc(Nc4ccc(N5CCOCC5)cc4)nc23)c1", "note": "[294_0088_0196, 3-(5-methoxy-3-pyridyl)-N-(4-morpholino-phenyl)pyrazolo [1,5-a]pyrimidin-5-amine]", "IC50": 2250}
{"smiles": "Cc1ccc(Nc2ccn3ncc(-c4cccc(O)c4)c3n2)cc1NS(C)(=O)=O", "note": "[294_0123_0284, N-[5-[[3-(3-hydroxyphenyl)pyrazolo[1,5-a]pyrimidin-5-yl]amino]-2-methyl-phenyl]methane-sulfonamide]", "IC50": 3170}
{"smiles": "Nc1cccc(-c2cnn3ccc(NCc4cccnc4)nc23)c1", "note": "[294_4003_0005, 3-(3-amino-phenyl)-N-(3-pyridylmethyl) pyrazolo[1,5-a]pyrimidin-5-amine]", "IC50": 2510}
{"smiles": "COc1ccc(-c2cnn3ccc(NCc4cccnc4)nc23)cc1OC", "note": "[294_4003_0079, 3-(3,4-dimethoxy-phenyl)-N-(3-pyridylmethyl) pyrazolo[1,5-a]pyrimidin-5-amine]", "IC50": 1640}
{"smiles": "COc1ccccc1-c1cnn2ccc(NCc3cccnc3)nc12", "note": "[294_4003_0083, 3-(2-methoxyphenyl)-N-(3-pyridylmethyl) pyrazolo[1,5-a]pyrimidin-5-amine]", "IC50": 1220}
{"smiles": "COc1cc(-c2cnn3ccc(NCc4cccnc4)nc23)cc(OC)c1OC", "note": "[294_4003_0087, N-(3-pyridylmethyl)-3-(3,4,5-trimethoxy-phenyl) pyrazolo[1,5-a]pyrimidin-5-amine]", "IC50": 2350}
{"smiles": "COc1ccc(-c2cnn3ccc(Nc4ccc(C(C)C)cc4)nc23)cc1", "note": "[294_6937_0280, N-(4-isopropylphenyl)-3-(4-methoxyphenyl) pyrazolo[1,5-a]pyrimidin-5-amine]", "IC50": 4180}
{"smiles": "COc1cc(-c2cnc(N)c(-c3cccc(N)c3)c2)cc(OC)c1OC", "note": "[382_0005_0087, 3-(3-aminophenyl)-5-(3,4,5-trimethoxy-phenyl)pyridin-2-amine]", "IC50": 2970}
{"smiles": "Cc1cc(-c2cnc(N)c(-c3ccncc3)c2)cc(C)c1O", "note": "[382_0069_0315, 4-[6-amino-5-(4-pyridyl)-3-pyridyl]-2,6-dimethyl-phenol]", "IC50": 1700}
{"smiles": "COc1cc(-c2cc(-c3ccc(OCCCN(C)C)nc3)cnc2N)cc(OC)c1OC", "note": "[382_0087_0002, 5-[6-[3-(dimethylamino)propoxy]-3-pyridyl]-3-(3,4,5-trimethoxy-phenyl)pyridin-2-amine]", "IC50": 530}
{"smiles": "COc1cc(-c2cc(-c3ccccc3)cnc2N)cc(OC)c1OC", "note": "[382_0087_0061, 5-phenyl-3-(3,4,5-trimethoxy-phenyl)pyridin-2-amine]", "IC50": 893}
{"smiles": "COc1cc(-c2cc(-c3ccccc3Oc3ccccc3)cnc2N)cc(OC)c1OC", "note": "[382_0087_0063, 5-(2-phenoxyphenyl)-3-(3,4,5-trimethoxy-phenyl)pyridin-2-amine]", "IC50": 9010}
{"smiles": "COc1cc(-c2cc(-c3cc4ccccc4s3)cnc2N)cc(OC)c1OC", "note": "[382_0087_0076, 5-(benzothiophen-2-yl)-3-(3,4,5-trimethoxyphenyl) pyridin-2-amine]", "IC50": 2690}
{"smiles": "COc1cc(-c2cc(-c3cccc(N(C)C)c3)cnc2N)cc(OC)c1OC", "note": "[382_0087_0135, 5-[3-(dimethyl-amino)phenyl]-3-(3,4,5-trimethoxyphenyl) pyridin-2-amine]", "IC50": 595}
{"smiles": "COc1cc(-c2cc(-c3cccc(C(=O)NCCO)c3)cnc2N)cc(OC)c1OC", "note": "[382_0087_0192, 3-[6-amino-5-(3,4,5-trimethoxy-phenyl)-3-pyridyl]-N-(2-hydroxyethyl) benzamide]", "IC50": 485}
{"smiles": "COc1cc(-c2cc(-c3ccc(N4CCN(C)CC4)cc3)cnc2N)cc(OC)c1OC", "note": "[382_0087_0218, 5-[4-(4-methylpiperazin-1-yl)phenyl]-3-(3,4,5-trimethoxyphenyl)pyridin-2-amine]", "IC50": 322}
{"smiles": "COc1ccc(-c2cnc(N)c(-c3cc(OC)c(OC)c(OC)c3)c2)cc1", "note": "[382_0087_0280, 5-(4-methoxyphenyl)-3-(3,4,5-trimethoxy-phenyl)pyridin-2-amine]", "IC50": 2980}
{"smiles": "COc1cc(-c2cc(-c3cccc(O)c3)cnc2N)cc(OC)c1OC", "note": "[382_0087_0284, 3-[6-amino-5-(3,4,5-trimethoxy-phenyl)-3-pyridyl]phenol]", "IC50": 723}
{"smiles": "COc1ccc(-c2cnc(N)c(-c3cc(OC)c(OC)c(OC)c3)c2)cn1", "note": "[382_0087_0311, 5-(6-methoxy-3-pyridyl)-3-(3,4,5-trimethoxyphenyl) pyridin-2-amine]", "IC50": 1060}
{"smiles": "COc1cc(-c2cc(-c3cccc(F)c3)cnc2N)cc(OC)c1OC", "note": "[382_0087_0313, 5-(3-fluorophenyl)-3-(3,4,5-trimethoxy-phenyl)pyridin-2-amine]", "IC50": 1520}
{"smiles": "COc1cc(-c2cc(-c3cc(C)c(O)c(C)c3)cnc2N)cc(OC)c1OC", "note": "[382_0087_0315, 4-[6-amino-5-(3,4,5-trimethoxyphenyl)-3-pyridyl]-2,6-dimethyl-phenol]", "IC50": 712}
{"smiles": "COc1cc(-c2cc(-c3ccc(N)cc3)cnc2N)cc(OC)c1OC", "note": "[382_0087_0333, 5-(4-aminophenyl)-3-(3,4,5-trimethoxy-phenyl)pyridin-2-amine]", "IC50": 971}
{"smiles": "COc1cc(-c2cc(-c3ccc(F)cc3)cnc2N)cc(OC)c1OC", "note": "[382_0087_0339, 5-(4-fluoro-phenyl)-3-(3,4,5-trimethoxy-phenyl)pyridin-2-amine]", "IC50": 2860}
